The source of these data is US7741283B2, “Compositions and methods for inhibiting cell proliferation” (St. Louis University, priority 2003, dated 2010).

Entries after “also recorded” stand apart in the source; their conditions may differ.

Experiment [1] relates to IRS-2. Briefly: 32P metabolic labeling and immunoprecipitation of IRS-2, MB102-9 cells. Type of experiment: cell-based, mink. The conditions noted are these: MB102-9 cells (αIβII); IGFBP-3 1 μg/ml, GM-CSF 1 nM.
Experiment [2] relates to IRS-2. Nature of the experiment: 32P metabolic labeling and immunoprecipitation of IRS-2, MB102-16 cells. It counts as cell-based, mink. Conditions: MB102-16 cells (αIβI); IGFBP-3 1 μg/ml, GM-CSF 1 nM.
Another experiment concerns TβR-V. Nature of the experiment: 125I-ligand affinity labeling (binding and cross-linking) in Mv1Lu cells. On the set-up: species or system mink. How it is done: FIG. 2 depicts the effects of RAP on ^125I-IGFBP-3 (A) and ^125I-TGF-β1 binding (B) to TβR-V and on IGFBP-3-induced inhibition of DNA synthesis (C) in Mv1Lu cells. (A,B) Cells were incubated with ^125I-IGFBP-3 (10 nM) or ^125I-TGF-β1 (0.1 nM) in the presence of various concentrations of RAP as indicated. After 2.5 hr at 0° C., the ^125I-IGFBP-3-TβR-V complex or ^125I-TGF-β1-TGF-β receptor complexes were cross-linked by DSS and analyzed by autoradiography. The relative intensity of the ^125I-IGFBP-3-TβR-V complex or ^125I-TGF-β1-TGF-β receptor complex on the dried gel was quantified by a PhosphoImager. The arrow indicates the location of the ^125I-TGF-β-TβR-V complex or the ^125I-IGFBP-3-TβR-V complex. The bracket indicates the locations of the ^125I-TGF-β1-TβR-III and -TβR-II complexes. The ^125I-TGF-β1-TβR-I complex co-migrated with the dye front. The ^125I-TGF-β1-TβR-II complex can be seen upon longer time exposure of the autoradiogram. (C) Cells were incubated with various concentrations, as indicated, of IGFBP-3 and GST-RAP (100 μg/ml). […] After further incubation for 10 hr, the DNA synthesis of cells was determined by measuring [methyl-^3H] thymidine incorporation into cellular DNA. […]
Mv1Lu cells are a well-established model system for investigating TGF-β activities and receptor functions. […] After further incubation for 10 hr, DNA synthesis of the cells was determined.

The subject of experiment [3] is TβR-V purified from bovine liver plasma membranes. Briefly: 125I-IGFBP-3 / 125I-TGF-β1 affinity labeling of purified TβR-V. Conditions: DSS, β1^25(41-65) 20 μM, RAP 10-40 μg/ml, α2M* 100 nM, lactoferrin 100 nM. It counts as binding.
A further experiment deals with DR26 cells. Briefly: [methyl-3H] thymidine incorporation, DR26 cells. It counts as cell-based, mink. Conditions: DR26 cells, in the presence of insulin. How it is done: (A,B) DR26 cells were incubated with various concentrations as indicated of IGFBP-3 in the absence (A) and presence (B) of various concentrations of insulin. After 18 hr at 37° C., the [methyl-^3H] thymidine incorporation into cellular DNA was determined. (C,D,E) Mv1Lu, DR26 and R1B cells metabolically labeled with ^[…]-orthophosphate for 2 hr were treated with IGFBP-3 (1:g/ml) or insulin (10 nM) (C). DR26 cells metabolically labeled with ^[…]-orthophosphate for 2 hr were treated with or without IGFBP-3 (1 μg/ml) in the presence of various concentrations of TGF-β1 as indicated (D). Mv1Lu cells expressing αIβI and αIβII chimeric receptors (MB102-16 and MB102-9 cells, respectively) metabolically labeled with ^[…]-orthophosphate for 2 hr were treated with or without IGFBP-3 (1 μg/ml) or GM-CSF (1 nM) (E). After 2 hr at 37° C. (in the absence of […]-orthophosphate in the medium), the ^[…]-labeled IRS-2 was immunoprecipitated and analyzed by 7.5% SDS-PAGE and autoradiography. […]
Mv1Lu cells were plated on 24-well clustered dishes and incubated with various concentrations of TGF-β1 or IGFBP-3 in DMEM containing 0.1% fetal calf serum. After incubation at 37° C. for 18 hr, the cells were pulse-labeled with 1 μCi of [methyl-^3H]thymidine at 37° C. for 2 hr and the [methyl-^3H] thymidine incorporation into cellular DNA was determined as described previously (59). […]

The next experiment relates to 32D/IR/IRS-2 cells. Nature of the experiment: [methyl-3H] thymidine incorporation, 32D/IR/IRS-2 cells. It counts as cell-based, murine. Conditions: insulin 10 nM.
A further experiment relates to Mv1Lu cells. Nature of the experiment: [methyl-3H] thymidine incorporation (DNA synthesis), Mv1Lu cells. Type of experiment: cell-based, mink.
In experiment [4] the test system is IRS-2. Briefly: 32P metabolic labeling and immunoprecipitation of IRS-2, Mv1Lu cells. Conditions: Mv1Lu, IGFBP-3 1 μg/ml […] then factor 10 nM (TGF-β1 20 pM) 0.5 hr. Type of experiment: cell-based, mink.

Regarding “GM-CSF: granulocyte/macrophage colony-stimulating factor”, the “Specific dephosphorylation (mobility change) of IRS-2” value with IRS-2 [1] is given as “induce moderate specific dephosphorylation”; with IRS-2 [2] it was “only induced specific dephosphorylation (electrophoretic mobility change) of IRS-2 in MB102-9 cells”.
Consider “RAP: receptor-associated protein, an LRP antagonist which blocks binding of all known ligands to LRP”, for which the “^125I-TGF-β1 binding to TβR-V and TβR-III” value in the experiment with TβR-V (0.1 nM 125I-TGF-β1) is “only partially inhibited”. Further, the “IC50, inhibition of ^125I-IGFBP-3 binding to TβR-V” value with TβR-V (10 nM 125I-IGFBP-3) is around 5 µg/mL. In addition, in experiment [3] (0.1 nM 125I-TGF-β1, […] 0° C.), the “^125I-TGF-β1 binding to purified TβR-V” value is listed as “appeared to inhibit”. The “^125I-IGFBP-3 binding to purified TβR-V” value in experiment [3] (10 nM 125I-IGFBP-3, […] 0° C.) is on record as “appeared to inhibit”.
With insulin: insulin [reference compound], the “Reversal of IGFBP-3 inhibition of DNA synthesis” value in the experiment on DR26 cells was “completely reversed”. Besides, in the experiment with 32D/IR/IRS-2 cells, the “Effect on IGFBP-3-induced growth inhibition” value is “capable of blocking” and the “Effect on TGF-β1-induced growth inhibition” value is recorded as “partially reversing”. The “Blocking of IGFBP-3-induced growth inhibition” value in the experiment on Mv1Lu cells (Mv1Lu cells) is on record as “completely blocked”. Further, the “Effect alone on TGF-β1-induced inhibition of DNA synthesis” value in the experiment on Mv1Lu cells (insulin 10 nM or cyclic RGD peptide 0.01 μg/ml alone) is “did not block; also recorded: Neither insulin (10 nM) nor the cyclic RGD peptide (0.01 μg/ml) alone affected”. Also, in the experiment with IRS-2 [4], the “Blocking of IGFBP-3-induced specific dephosphorylation of IRS-2 by growth factors/cytokines” value is listed as “blocked”.
